These results are taken from ChEMBL document CHEMBL1149034, “8-Hydroxymanzamine A, a beta-carboline alkaloid from a sponge, Pachypellina sp” (J Nat Prod, 1994).

Experiment [1] concerns LoVo. The experiment in a line: Cytotoxicity against human LoVo cells. In kind it is functional, cell-based.
Experiment [2] deals with P388. Briefly: Cytotoxicity against mouse P388 cells. Type of experiment: functional, cell-based.
Experiment [3] deals with Human alphaherpesvirus 2. Briefly: Antiviral activity against HSV2. In kind it is functional.
Experiment [4] relates to KB. The experiment in a line: Cytotoxicity against human KB cells. In kind it is functional, cell-based.

One may read the IC50 as the concentration needed to halve the response being measured.

Values after ≈ are worked out from the molar mass of the structure shown. Active and inactive are the calls of the source. The rule behind the calls is not given here.

On to `O[C@]12C=C(c3nccc4c3[nH]c3ccccc34)[C@@H]3CCN(CCCC/C=C\CC1)C[C@@]31C[C@@H]3/C=C\CCCCN3[C@H]12` [MANZAMINE A], for which the IC50 was 0.15 µg/mL (≈ 0.273 µM) in experiment [1], 0.07 µg/mL (≈ 0.128 µM) in experiment [2] and 0.05 µg/mL (≈ 0.0911 µM) in experiment [4]. Besides, the MIC in experiment [3] came to 0.05 µg/mL (≈ 0.0911 µM).
`COc1cccc2c1[nH]c1c(C3=C[C@@]4(O)CC/C=C\CCCCN5CC[C@@H]3[C@]3(C[C@@H]6/C=C\CCCCN6[C@H]34)C5)nccc12` [8-METHOXYMANZAMINE A]: the figures for the IC50 in experiment [1] and in experiment [4] were 0.1 µg/mL (≈ 0.173 µM) and 0.33 µg/mL (≈ 0.57 µM), respectively. In experiment [3], this compound gave an MIC of 0.1 µg/mL (≈ 0.173 µM).
As to `Oc1cccc2c1[nH]c1c(C3=C[C@@]4(O)CC/C=C\CCCCN5CC[C@@H]3[C@]3(CC6/C=C\CCCCN6[C@H]34)C5)nccc12` (stereo partly specified), the IC50 in experiment [1] was 0.26 µg/mL (≈ 0.46 µM); in experiment [4], 0.3 µg/mL (≈ 0.531 µM). In experiment [2], the outcome was inactive. In addition, the MIC in experiment [3] was 0.1 µg/mL (≈ 0.177 µM).
